# From US20070225245A1, “Viral vector driven mutant bacterial cytosine deaminase gene and uses thereof” (priority 1998, published 2007)
# Experiments:
# [1] = test system: Intracranial D54MG Human Gliomas; assay: Survival, intracranial glioma, intratumoral Ad and systemic 5-FC; type: in vivo, SCID mice; details: Table 7; Saline (no virus) + 5-FC
# Description: U87MG and D54MG cells (5×10^5) were stereotactically injected into the right frontal cortex of SCID mice. Tumors were established for 5 days before intratumoral injection of AdCMVCD (10^8 or 10^9 pfu/mouse). Mice were then treated IP with 5-FC (500 mg/kg bid) on days 2-9 post infection and monitored for survival. Kaplan-Meier survival curves and median and 20% survival values were calculated by standard methods.
# [2] = test system: Intracranial U87MG Human Gliomas; assay: Survival, intracranial glioma, Ad, 5-FC and external beam radiation; type: in vivo, athymic nude mice
# Description: This therapeutic effect of AdCMVCD/5-FC on glioma cells could be further enhanced with concurrent fractionated ionizing external beam radiation (Table 9). U87MG cells (5×10^5) were stereotactically injected into the right frontal cortex of athymic nude mice. Tumors were established for 5 days before intratumoral injection of AdCMVCD (10^9 pfu/mouse). Mice were then treated IP with 5-FC (500 mg/kg bid) on days 2-9 post infection, irradiated with local external beam 330 cGy ^60Co radiation on days 4 and 7 post-infection, and monitored for survival. Kaplan-Meier survival curves and median and 20% survival values were calculated by standard methods.
# [3] = test system: Intracranial D54MG gliomas; assay: Survival, intracranial glioma, HSV and 5-FC; type: in vivo, athymic nude mice; details: saline and 5-FC
# Description: Two days later, mice were begun on twice daily intraperitoneal injections of saline (1 ml) or 5-FC (500 mg/kg). Mice were followed for survival.
# Studies were undertaken to determine the efficacy of the HSV construct, M012, in in vivo murine glioma models. […] The median survival of animals receiving saline plus 5-FC was 34 days. In a similar study with the D54MG intracranial model, median survival of mice injected intratumorally with M012 and administered 5-FC was 40 days, compared to 27 days with M012 plus saline and 19 days with saline and 5-FC (FIG. 14).
# SK-ChA-1 = assay: 5-FU cytotoxicity IC50; type: cell-based; details: Homo sapiens
# Description: (§1) A two factor analysis of variance with interaction was used to assess the effects of AdCMVLuc and AdCMVLuc+Fab-FGF2 MOI on RLU for each of the cell types individually. Due to the nonconstant variability, the logarithm of RLU was analyzed. This transformation stabilized the variability and normalized the errors. A three-factor with interaction analysis of variance was used to assess the effects of MOI, virus type and day on the number of cells per well. Due to the nonconstant variability, the logarithm of cells per well was analyzed. This transformation stabilized the variability and normalized the errors. Global comparisons were done at the 5% significance level and all pairwise comparisons were done at the 1% significance level. A nonlinear model was used to calculate the 5-FU IC50 for each cell type individually. The nonlinear model is given by: number of cells=trough+(peak-trough)/(1+dose/IC50). To assess the correlation of the number of cells per well with 5-FU production, a simple linear regression was done modeling the logarithm of cells per well as a function of percent 5-FU production for each cell and virus type combination individually. Kaplan-Meier estimates on the difference in time to tumor size doubling was used to assess the difference in tumor growth in animals treated with AdCMVCD or AdCMVCD+Fab′-FGF2 plus 5-FC and radiation.
# (§2) To determine the relative sensitivity of several hepatobiliary cell lines to 5-FU, the concentration of 5-FU which inhibited cellular growth by 50% (IC50) was determined. Characterization of this information is particularly relevant to the CD/5-FC toxin gene prodrug system, as 5-FU is the toxic metabolic product of cytosine deaminase enzymatic conversion of 5-FC.
# CFPAC-1 = assay: 5-FU cytotoxicity IC50; type: cell-based; details: Homo sapiens
# Description: as §1, §2
# BXPC-3 [4] = assay: 5-FU cytotoxicity IC50; type: cell-based; details: Homo sapiens
# Description: as §1, §2
# ASPC-1 = assay: 5-FU cytotoxicity IC50; type: cell-based; details: Homo sapiens, ASPC1
# Description: as §1, §2
# U251MG [5] = assay: 5-FC or 5-FU toxicity (MTS) in Ad-infected cells; type: cell-based; details: Homo sapiens, U-251, Table 14, MOI 0
# Description: (§3) Next, cytosine deaminase was administered to glioma cells via the replication deficient adenovirus. Glioma cells plated in T25 flasks were infected with AdCMVCD at several multiplicities of infection (MOI 0-300 pfu/cell) for 1 h at 37° C. At twenty-four hours post-infection, cells were harvested, replated at 5×10^3 cells/well in 96 well plates, and allowed to adhere overnight. […]
# (§4) To test this hypothesis, 5-FC toxicity (IC50) was compared in cells infected with AdCMVCD versus AdCDUPRT. […] In Table 13 mean 5-FC IC50 was obtained from 2-5 separate experiments. Cells were infected with AdCMVCD or AdCDUPRT at the indicated MOI (pfu/cell) for 1 h at 37° C. 5-FC toxicity was determined by MTS assay 5 days after drug addition.
# U87MG [6] = assay: 5-FC or 5-FU toxicity (MTS) in Ad-infected cells; type: cell-based; details: Homo sapiens, U-87 MG, Table 14, MOI 0
# Description: as §3, §4
# S2-VP10 = assay: Crystal violet cytotoxicity assay (5-FU, or 5-FC after Ad infection); type: cell-based; details: Homo sapiens, 120 h, 5 days
# Text: (§5) Twenty-four hours later cells were infected with AdbCD-D314A or AdbCDwt at various MOI.
# D54MG = assay: as above; type: cell-based; details: Homo sapiens, 120 h, 5 days
# Text: as §5
# MIA PaCa-2 = assay: as above; type: cell-based; details: Homo sapiens, 120 h, 5 days
# Text: as §5
# Panc2.03 = assay: as above; type: cell-based; details: Homo sapiens, Panc203, 120 h, 5 days
# Text: as §5
# U251MG [7] = assay: as above; type: cell-based; details: Homo sapiens, U-251, 120 h, 5 days
# Text: as §5
# PANC-1 = assay: as above; type: cell-based; details: Homo sapiens, 120 h, 5 days
# Text: as §5
# U87MG [8] = assay: as above; type: cell-based; details: Homo sapiens, U-87 MG, 120 h, 5 days
# Text: as §5
# S2-013 = assay: as above; type: cell-based; details: Homo sapiens, 120 h, 5 days
# Text: as §5
# BXPC-3 [9] = assay: as above; type: cell-based; details: Homo sapiens, 120 h, 5 days
# Text: as §5
# [10] = Saline (no virus) + 5-FC, no XRT
structure (smiles),measurement,setting,value
"Nc1nc(=O)[nH]cc1F [5-FC, 5-fluorocytosine]",Survival 20%,[1],30
same,Survival Median,[1],29
same,Survival 20%,[2]; Saline (no virus) + 5-FC + XRT,32
same,Survival Median,[2]; Saline (no virus) + 5-FC + XRT,31
same,Survival 20%,[2]; [10],55
same,Survival Median,[2]; [10],28
same,median survival,[3],19 days
"O=c1[nH]cc(F)c(=O)[nH]1 [5-FU, 5-fluorouracil]",IC50,SK-ChA-1,0.115 mg/L
same,IC50,CFPAC-1,0.089 mg/L
same,IC50,BXPC-3 [4],0.134 mg/L
same,IC50,ASPC-1,0.635 mg/L
same,IC50,U251MG [5],0.4 mg/L
same,IC50,U87MG [6],1.8 mg/L
same,IC50,S2-VP10,2.7 ± 0.1 mg/L
same,IC50,D54MG,3.9 ± 0.8 mg/L
same,IC50,MIA PaCa-2,1.4 mg/L
same,IC50,Panc2.03,12.4 mg/L
same,IC50,U251MG [7],2.5 ± 1.2 mg/L
same,IC50,PANC-1,1.5 ± 0.5 mg/L
same,IC50,U87MG [8],0.9 ± 0.5 mg/L
same,IC50,S2-013,0.5 ± 0.1 mg/L
same,IC50,BXPC-3 [9],0.1 mg/L
